# Laboratory results as given in patent publication US12458646B2, “Therapeutic or preventing agent for multiple sclerosis including indole compound” (JAPAN TOBACCO INC., priority 2018, dated 2025).
# Columns and labels:
# [1] = biological target: T1, inducible T cell kinase (ITK) (Homo sapiens, UniProt Q08881); settings: as described in patent document 1 (WO 2011/065402); cited from earlier work
# T1 sequence (Q08881 1-620): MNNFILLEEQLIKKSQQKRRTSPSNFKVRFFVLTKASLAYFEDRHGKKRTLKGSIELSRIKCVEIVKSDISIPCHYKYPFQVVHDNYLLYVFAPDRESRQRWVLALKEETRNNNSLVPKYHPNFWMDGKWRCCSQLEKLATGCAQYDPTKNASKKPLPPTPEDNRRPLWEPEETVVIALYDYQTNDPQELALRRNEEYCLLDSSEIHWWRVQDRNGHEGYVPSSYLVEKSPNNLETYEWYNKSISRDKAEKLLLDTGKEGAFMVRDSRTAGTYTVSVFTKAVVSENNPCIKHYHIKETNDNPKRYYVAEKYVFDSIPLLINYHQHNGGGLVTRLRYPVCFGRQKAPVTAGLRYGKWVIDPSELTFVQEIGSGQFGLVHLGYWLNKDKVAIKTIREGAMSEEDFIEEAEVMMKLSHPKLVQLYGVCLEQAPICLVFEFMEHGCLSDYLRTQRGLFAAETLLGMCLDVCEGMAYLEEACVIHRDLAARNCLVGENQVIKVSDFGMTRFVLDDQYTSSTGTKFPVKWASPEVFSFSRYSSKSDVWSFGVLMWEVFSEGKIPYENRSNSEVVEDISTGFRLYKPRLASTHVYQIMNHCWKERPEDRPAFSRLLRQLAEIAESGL
# [2] = tested on: mouse experimental autoimmune encephalomyelitis (EAE) model; assay: disease animal model of MS (mouse experimental autoimmune encephalomyelitis (EAE) model, clinical score); format: in vivo; settings: experiment using a disease animal model of MS
# Protocol: Using a mouse EAE model, the suppressive effect of Compound A on an increase in clinical score was evaluated. The evaluation was performed by reference to non-patent document 3. As the experiment animal, 8-week-old female C57BL/6J mouse (CHARLES RIVER LABORATORIES JAPAN, INC.) was used. Monohydrochloride of Compound A was dissolved in 0.5% (w/v) methylcellulose (MC) to prepare 1 mg/mL, 3 mg/mL and 6 mg/mL Compound A solutions. FTY-720 hydrochloride (Cayman Chemical) was dissolved in 0.5% (w/v) MC to prepare a 0.01 mg/mL FTY-720 solution. […]
# As clinical scores (score 0; normal, score 1; limp tail, score 2; hind limb weakness, score 3; partial hind limb paralysis, score 4; complete hind limb paralysis, score 5; moribund state, dead), the condition was observed over time and scored for each individual for 18 days from day 1.
# Using a mouse Adoptive transfer EAE model, the suppressive effect of Compound A on an increase in clinical score was evaluated. […]
# As clinical scores (score 0; normal, score 1; limp tail, score 2; hind limb weakness, score 3; partial hind limb paralysis, score 4; complete hind limb paralysis, score 5; moribund state, dead), the condition was observed over time and scored for each individual for 20 days from day 1.
structure (smiles),measurement,setting,value
"C[C@@H](C(=O)N(C)c1ccc2cc(-c3n[nH]c4c3CCC(C)(C)C4)[nH]c2c1)N1CCOCC1 [Compound A, N-[2-(6,6-dimethyl-4,5,6,7-tetrahydro-1H-indazol-3-yl)-1H-indol-6-yl]-N-methyl-(2S)-2-(morpholin-4-yl)propanamide]",ITK inhibitory activity,[1],has an ITK inhibitory activity
same,severity of the disease,[2],significantly reduce severity of the disease
